Assay results reported in paper PMC4657899, “Design, Synthesis and In Vitro Activity of Anticancer Styrylquinolines. The p53 Independent Mechanism of Action” (PLoS ONE, 2015).

How the values were obtained:
HCT116 (p53+/+) = experiment: MTS anti-proliferative assay, HCT116 (p53+/+); assay type: cell-based, human; details: Homo sapiens, HCT-116, 72 h incubation, mean ± SD
Experimental: (§1) The human colon adenocarcinoma cell line HCT116 along with wild type p53 (p53^+/+) were obtained from the ATCC. The normal human fibroblast cell line GM 07492 and HCT116 with a p53 deletion (p53^-/-) were kindly provided by prof. M. Rusin from Maria Sklodowska-Curie Memorial Cancer Center and Institute of Oncology in Gliwice, Poland. Cells were grown as monolayer cultures in 75 cm^2 flasks (Nunc) in Dulbecco’s modified Eagle’s medium with an antibiotic gentamicin (200 μL/100 mL medium). DMEM for HCT116 were supplemented with 12% heat-inactivated fetal bovine serum (Gibco) and for GM 07492 with 15% fetal bovine serum (Gibco). Cells were cultured under standard conditions at 37°C in a humidified atmosphere at 5% CO2.
(§2) The cells were seeded in 96-well plates 24 h before the addition of the compounds that were tested. The assay was performed following a 72 h incubation with varying concentrations of the agents that were tested. The results were calculated as IC50 values (using GraphPad Prism 5). Each individual compound was tested in triplicate in a single experiment with each experiment being repeated three times. After a 72 h incubation with the compounds that were tested, 20 μL of The CellTiter 96®AQueous One Solution—MTS (Promega) solution was added to each well (with 100 μL DMEM without phenol red) and incubated for 1 h at 37°C. The optical densities of the samples were analyzed at 490 nm. Results were expressed as a percentage of the control.

HCT116 (p53-/-) = experiment: MTS anti-proliferative assay, HCT116 (p53-/-); assay type: cell-based, human; details: for IC50: Homo sapiens, HCT-116, MTS, 72 h incubation, mean ± SD
Experimental: as §1, §2

GM 07492 = experiment: MTS cytotoxicity assay, normal fibroblasts GM 07492; assay type: cell-based; details: Fibroblast, 72 h incubation, normal human fibroblasts, mean ± SD
Experimental: as §1, §2

PARP in HCT-116 cells = experiment: Immunoblotting, PARP cleavage; assay type: cell-based, human; details: 0, 10, 20, 40 μM
Experimental: Specific antibodies were purchased from Sigma-Aldrich (anti-PARP, anti-tubulin and peroxidase-labeled secondary antibodies). Briefly, cellular lysates were prepared by harvesting cells in a Laemmli sample buffer. Proteins were separated on SDS-polyacrylamide gels and electroblotted onto nitrocellulose membranes. After blocking, the membranes were incubated with specific primary antibodies overnight, washed and then incubated with peroxidase-conjugated secondary antibodies. Finally, peroxidase activity was detected with ECL+ reagents (AP Biotech) using a CCD camera LAS-4000 (Fujifilm).

[1] = system: caspase-3 and -7 in HCT116 (p53+/+) cells; experiment: Caspase-Glo 3/7 assay, HCT116 (p53+/+); assay type: cell-based, human; details: IC50 concentration, 48 h, relative to doxorubicin
Experimental: (§3) To measure caspase-3 and -7 activities, a luminescent Caspase-Glo 3/7 assay was performed. HCT116 (p53^+/+) and (p53^-/-) cells were seeded onto black 96-well plates at a density of 3,500 cells/well. […] After 48 h a Caspase-Glo 3/7 Assay (Promega) was performed according to the manufacturer’s instructions. After adding 100 μL of Caspase3/7 GloReagent, cells were incubated for 2.5 h at room temperature. The luminescence was measured using a multi-plate reader (Synergy 4, Bio Tek) with an integration time of 1 second per well. The experiments were performed in duplicate.

HCT116 p53-/- cells = system: HCT116 p53-/- cells; set-up: method as in PMID 12027451; details: cited from earlier work
Calf-thymus DNA (CT-DNA) = experiment: Spectrophotometric DNA binding (intercalation) study with CT-DNA; details: for % hypochromism: 1.5 h 37°C, Tris-HCl pH 7.9; for % hypochromism / Δε: at the (first) absorption band (CP-31398: 312); for shift of the wavelength of maximum absorption, alone vs DNA-bound / Changes in absorbance: S3 Table; for Changes in absorbance: with CT-DNA
Experimental: For the DNA binding studies, Calf-thymus DNA (CT-DNA) was purchased from Sigma Aldrich. The lyophilized CT-DNA was dissolved in 10 mM Tris-HCl, pH 7.9, mixed gently and left overnight at 4°C. Then, the concentration of CT-DNA was determined from the absorbance at 260 nm using an extinction coefficient of 6600 M^-1cm^-1. […] Afterwards, 18 μM CT-DNA was added to the prepared solutions and were incubated for 1.5 h at 37°C with occasional vortexing. Absorption spectra were measured using a Hitachi U-2900 spectrophotometer in range of 200–600 nm. All absorption spectra were imported and compared in OriginPro 8.0.

[2] = system: caspase-3 and -7 in HCT116 (p53-/-) cells; experiment: Caspase-Glo 3/7 assay, HCT116 (p53-/-); assay type: cell-based, human; details: IC50 concentration, 48 h
Experimental: as §3

HCT116 +/+ = experiment: Trypan blue staining test, HCT116 +/+; assay type: cell-based, human; details: Homo sapiens, HCT-116; S2 Table, trypan blue cell counting, 72 h
Experimental: (§4) The cells were seeded in 3 cm Petri dishes (Nunc) and incubated at 37°C. After 24h, solutions […]
(§5) a 72 h incubation with tested compounds, the cells were trypsinize d with 0.05% Trypsin -EDTA solution (Sigma). Then, 90µl of suspension cells transferred into 96 -well plate containing 10µl Trypan blue reagent in wells. The cells were counted under an optical inverted microscope Olympus CKX31. The results from three independent experiment were calculated as IC 50 values using GraphPad Prism 5 software.

HCT116 -/- = experiment: Trypan blue staining test, HCT116 -/-; assay type: cell-based, human; details: Homo sapiens, HCT-116; S2 Table, trypan blue cell counting, 72 h
Experimental: as §4, §5

colon cancer cells = system: colon cancer cells; set-up: method as in Arafa et al.; details: ref Arafa et al.; cited from earlier work
P388 cell line = system: P388 cell line; set-up: method as in PMID 17904844; details: cited from earlier work
SK-N-MC cell line = system: SK-N-MC cell line; set-up: method as in PMID 17142046; details: cited from earlier work
[3] = 18 μM CT-DNA, CP-31398 absorption band 350

SMILES: CC(=O)Oc1cccc2ccc(C=Cc3ccccc3F)nc12 [12b]
- IC50 (HCT116 (p53+/+)): 12.1 ± 3.02 µM
- IC50 (HCT116 (p53-/-)): 5.78 ± 0.78 µM
- times more effective against HCT116 (p53-/-) than against wild type cells (HCT116 (p53-/-); ratio of MTS IC50 values): 2–3 times
- IC50 (GM 07492): > 25 µM
- melting point: 117 °C

SMILES: COc1cccc(C=Cc2ccc3cccc(O)c3n2)c1 [13b]
- IC50 (HCT116 (p53+/+)): 24.6 ± 4.36 µM
- IC50 (HCT116 (p53-/-)): 18.4 ± 1.36 µM
- IC50 (GM 07492): > 25 µM

SMILES: CC(=O)Oc1ccc(C=Cc2ccc3cccc(OC(C)=O)c3n2)c(OC(C)=O)c1OC(C)=O [14b]
- IC50 (HCT116 (p53+/+)): 17.9 ± 1.67 µM
- IC50 (HCT116 (p53-/-)): 11.4 ± 1.02 µM
- melting point: 194 °C

SMILES: CCOc1ccccc1C=Cc1ccc2cccc(O)c2n1 [15b, 2 – [2-(2-Ethoxyphenyl)vinyl]quinolin-8-ol]
- IC50 (HCT116 (p53+/+)): 15.8 ± 3.32 µM
- IC50 (HCT116 (p53-/-)): 12.8 ± 3.53 µM
- melting point: 100 °C

SMILES: CCOc1ccc(C=Cc2ccc3cccc(O)c3n2)cc1 [16b, 2 – [2-(4-Ethoxyphenyl)vinyl]quinolin-8-ol]
- IC50 (HCT116 (p53+/+)): > 25 µM
- IC50 (HCT116 (p53-/-)): 16.1 ± 4.84 µM
- melting point: 130 °C

SMILES: Oc1cccc2ccc(C=Cc3ccccc3Cl)nc12 [17b, 2 – [2-(2-Chlorophenyl)vinyl]quinolin-8-ol]
- IC50 (HCT116 (p53+/+)): 9.84 ± 1.79 µM
- PARP cleavage (PARP in HCT-116 cells): clearly observable
- IC50 (HCT116 (p53-/-)): 7.97 ± 3.24 µM
- IC50 (GM 07492): 20.2 ± 6.52 µM

SMILES: Oc1ccccc1C=Cc1ccc2cccc(O)c2n1 [18b, 2 – [2-(2-Hydroxyphenyl)vinyl]quinolin-8-ol]
- IC50 (HCT116 (p53+/+)): 16.1 ± 0.88 µM
- IC50 (HCT116 (p53-/-)): 15.2 ± 1.31 µM
- melting point: 316 °C

SMILES: Oc1cccc(C=Cc2ccc3cccc(O)c3n2)c1 [19b, 2 – [2-(3-Hydroxyphenyl)vinyl]quinolin-8-ol]
- IC50 (HCT116 (p53+/+)): 16.3 µM
- IC50 (HCT116 (p53-/-)): 10.6 ± 1.23 µM

SMILES: Oc1ccc(C=Cc2ccc3cccc(O)c3n2)c(O)c1 [20b, 2 – [2-(2,4-Dihydroxyphenyl)vinyl]quinolin-8-ol]
- IC50 (HCT116 (p53+/+)): > 25 µM
- IC50 (HCT116 (p53-/-)): > 25 µM
- melting point: 273 °C

SMILES: COc1ccc(/C=C/c2nc(NCCCN(C)C)c3ccccc3n2)cc1 [CP-31398]
- IC50 (HCT116 (p53+/+)): 18.6 ± 0.92 µM
- Caspase-3/7 activity in wild type cells [1]: two times higher than doxorubicin
- IC50 (HCT116 (p53-/-)): 26.3 ± 1.41 µM
- IC50 (GM 07492): 12.3 ± 0.54 µM
- activity against HCT116 p53-/- cells versus wild-type (p53+/+) (HCT116 p53-/- cells): several times less active
- % hypochromism (Calf-thymus DNA (CT-DNA); 18 μM CT-DNA): 41,4%
- % hypochromism, second absorption band (Calf-thymus DNA (CT-DNA); [3]): 37,4%
- Δε, second absorption band (Calf-thymus DNA (CT-DNA); [3]): 1693,3 M−1 cm−1
- Δε (Calf-thymus DNA (CT-DNA); 18 μM CT-DNA): 1515,6 M−1 cm−1
- shift of the wavelength of maximum absorption, alone vs DNA-bound (Calf-thymus DNA (CT-DNA); 18 μM CT-DNA): 0
- Changes in absorbance (Calf-thymus DNA (CT-DNA)): hypochromism
- Caspase-3/7 activity in p53-/- cells [2]: did not increase the activity of caspases

SMILES: COc1cccc2c1C(=O)c1c(O)c3c(c(O)c1C2=O)C[C@@](O)(C(=O)CO)C[C@@H]3O[C@H]1C[C@H](N)[C@H](O)[C@H](C)O1 [Doxorubicin]
- IC50 (HCT116 (p53+/+)): 5.95 ± 0.5 µM
- IC50 (HCT116 +/+): 2.83 µM
- IC50 (HCT116 (p53-/-)): 1.65 ± 0.21 µM
- IC50 (GM 07492): 3.38 ± 1.29 µM
- % hypochromism (Calf-thymus DNA (CT-DNA); 18 μM CT-DNA): 34.2%
- % hypochromism (Calf-thymus DNA (CT-DNA); 18 μM CT-DNA, listed as DOX): 34,2%
- Δε (Calf-thymus DNA (CT-DNA); 18 μM CT-DNA): 3235,6 M−1 cm−1
- shift of the wavelength of maximum absorption, alone vs DNA-bound (Calf-thymus DNA (CT-DNA); 18 μM CT-DNA): 10
- Changes in absorbance (Calf-thymus DNA (CT-DNA)): hypochromism
- shift in the wavelength on DNA binding (Calf-thymus DNA (CT-DNA); blue shift for 5b, 6b, red shift for doxorubicin): 10 nm
- IC50 (HCT116 -/-): 1.28 µM

SMILES: COc1cc(/C=N/NC(=O)COc2c(Br)cc(Br)c3cccnc23)cnc1O [III]
- IC50 (colon cancer cells): 4.7 µM

SMILES: Cc1ccc2c(n1)C(=O)C(NC(=O)/C=C/c1ccccc1)=CC2=O [IV]
- IC50 (P388 cell line): 1.44 µM

SMILES: Oc1cccc2ccc(/C=C/c3ccc(Cl)cc3)nc12 [I]
- IC50 (SK-N-MC cell line): 0.77 µM
